Reference: patent US20260159474A1, “Aminoindane Compounds and Compositions and Methods of Their Therapeutic Use” (Solvonis Therapeutics Ireland Holdings Limited, priority 2021, published 2026)

Target: T1, human P-glycoprotein transporter (MDCKII-MDR1 cells) (Homo sapiens, UniProt P08183)
T1 construct: expressed in transfected cells; host or cells: MDCKII-MDR1 (Madin-Darby Canine Kidney clone II)
Test: Bidirectional permeability and P-gp substrate assay in MDCKII-MDR1 cells
Assay type: in vitro ADME
Details: for Permeability classification: by Papp; for Papp A→B at 60 min: dog, MDCK, read-out: MDCKII Permeability app A > B; for P-gp Substrate?: efflux ratio >2 and reduced with GF120918 or in mock MDCKII cells
Method: Methods: A bidirectional permeability study was conducted to evaluate the apparent permeability (Papp) of therapeutic compounds. Additionally, the MDCKII-MDR1 cell line (Madin-Darby Canine Kidney clone II cell line heterologously expressing the human P-glycoprotein transporter) and mock cell line MDCKII were used to determine whether a compound acted as a P-gp substrate, in the absence and in the presence of a potent P-gp inhibitor. Test control items (digoxin, metoprolol, and atenolol) and control P-gp inhibitor (GF120918) stock solution were prepared in DMSO. Bidirectional assays (Apical to Basolateral [AB] and Basolateral to Apical [BA]) were run, in both the absence and presence of P-gp inhibitor GF120918 in MDCKII-MDR1 and mock cell line MDCKII, using as transport buffer HBSSH at a pH of 7.4 (n=3).
Compounds were tested at a single concentration (i.e. at […]) at one time point (i.e. 60 min). Alternative concentrations or time points may also be investigated. As reference compounds, digoxin (P-gp substrate), atenolol (low permeability) and metoprolol (high permeability) were included at a single concentration (e.g., 10 or […]) and at single time point (e.g., 60 min). Digoxin transport was evaluated in two directions (apical-to-basolateral [AB] and basolateral-to-apical [BA]) in the absence and presence of GF120918 or in mock cells, MDCKII (n=3). Atenolol and metoprolol were only tested in the AB direction in absence of P-gp inhibitor GF120918 or in mock cells, MDCKII (n=3). The integrity of the cell monolayer was evaluated after the permeability experiment using the paracellular permeability marker Lucifer yellow (LY) in the apical to basolateral direction in each well.
MDCKII or MDCKII-MDR1 cells were cultivated in DMEM (high glucose, GlutaMAXTM supplemented with pyruvate, 10% FBS HI and Pen/Strep). Cells were seeded onto microporous PET (Polyethylene Terephthalate) membranes in HTS 96-Multiwell Insert plates at a density of ˜175,000-245,000 cells/cm^2 (25000-35000 cells/well; 50 μL/well) in DMEM medium and incubated for 3-4 days at 37° C.-5% CO2. Medium was changed the day before the experiment.
Stock solutions of test items were prepared in DMSO at a concentration of 5 or 10 mM and stored at −20° C. until use. The potent P-gp inhibitor, GF120918 (stock solution 10 mM) and the reference controls digoxin, atenolol, metoprolol (stock solutions 3 or 10 mM) were prepared in DMSO and stored at −20° C. until use.
Donor working solutions of test items and reference controls were prepared at a concentration of 10 or 25 µM, diluting the stock solutions in HBSSH. Receiver working solutions contained transport buffer only. All working solutions were prepared such that the final concentration of DMSO was 1% (v/v). A donor working solution containing LY was also prepared in transport buffer at 100 µM.
MDCKII and MDCKII-MDR1 cells were preincubated (37° C., 15 to 30 minutes) in receiver working solutions containing transport buffer on apical (A) and basolateral (B) sides. Following pre-incubation, test items and control items (digoxin) transport were measured in two directions (apical to basolateral [AB]) and basolateral to apical [BA]), and these directions were performed in triplicate sets of wells, in both the absence and presence of […] GF120918 or mock MDCKII cells. For [AB] directional transport, 75 μL of donor working solution was added to the A (apical) compartment and 235 μL of receiver working solution was added to the B (basolateral) compartment. For [BA] directional transport, 235 μL donor working solution with test items or reference controls was added to the B compartment and 75 μL receiver working solution was added to the A compartment. Transport of permeability reference controls, atenolol and metoprolol, were measured in one direction (apical to basolateral [AB]) (n=3).
The cells were incubated (at 37° C., with shaking) for 60 minutes. […]

[1] = apical to basolateral, pH 7.4, 60 min

T1 sequence (P08183 whole entry): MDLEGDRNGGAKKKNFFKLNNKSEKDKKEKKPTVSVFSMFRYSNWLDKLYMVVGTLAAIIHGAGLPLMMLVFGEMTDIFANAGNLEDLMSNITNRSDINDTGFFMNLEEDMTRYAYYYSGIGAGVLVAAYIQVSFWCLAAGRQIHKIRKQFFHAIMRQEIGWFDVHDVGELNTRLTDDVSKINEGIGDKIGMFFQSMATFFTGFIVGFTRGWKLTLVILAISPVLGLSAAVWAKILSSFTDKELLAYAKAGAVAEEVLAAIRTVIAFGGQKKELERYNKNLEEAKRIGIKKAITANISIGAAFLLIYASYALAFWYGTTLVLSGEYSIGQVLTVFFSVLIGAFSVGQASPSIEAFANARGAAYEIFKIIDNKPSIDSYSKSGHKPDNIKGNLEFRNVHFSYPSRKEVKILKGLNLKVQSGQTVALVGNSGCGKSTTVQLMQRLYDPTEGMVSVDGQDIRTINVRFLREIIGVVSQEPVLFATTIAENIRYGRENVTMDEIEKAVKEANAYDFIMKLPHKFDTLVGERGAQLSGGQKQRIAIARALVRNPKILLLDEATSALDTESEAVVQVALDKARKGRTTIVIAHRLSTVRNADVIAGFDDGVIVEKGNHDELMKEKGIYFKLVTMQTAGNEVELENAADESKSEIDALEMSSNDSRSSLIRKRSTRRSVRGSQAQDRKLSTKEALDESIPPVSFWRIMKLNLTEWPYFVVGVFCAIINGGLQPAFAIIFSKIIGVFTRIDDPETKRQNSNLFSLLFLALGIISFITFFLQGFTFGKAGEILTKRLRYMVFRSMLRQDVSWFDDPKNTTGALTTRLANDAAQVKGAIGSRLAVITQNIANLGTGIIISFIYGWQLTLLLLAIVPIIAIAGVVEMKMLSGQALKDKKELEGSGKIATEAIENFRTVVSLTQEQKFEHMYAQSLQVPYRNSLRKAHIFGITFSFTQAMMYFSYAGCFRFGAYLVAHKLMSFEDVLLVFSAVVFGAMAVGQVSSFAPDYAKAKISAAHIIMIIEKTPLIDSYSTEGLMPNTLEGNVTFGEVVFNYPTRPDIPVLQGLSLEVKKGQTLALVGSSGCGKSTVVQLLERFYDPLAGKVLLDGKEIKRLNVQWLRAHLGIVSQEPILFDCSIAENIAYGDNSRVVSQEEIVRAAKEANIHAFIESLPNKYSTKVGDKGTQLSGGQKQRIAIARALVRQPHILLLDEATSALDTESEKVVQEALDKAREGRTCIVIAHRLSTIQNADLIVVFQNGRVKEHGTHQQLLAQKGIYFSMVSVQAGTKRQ

| SMILES | Permeability classification | Papp A→B at 60 min [1] [×10⁻⁶ cm/s] | P-gp Substrate? | MDCKII Permeability app A > B [1] [×10⁻⁶ cm/s] | MDCKII-MDR1 B-A ratio (efflux ratio, MDCKII-MDR1 cells) |
| --- | --- | --- | --- | --- | --- |
| COC(=O)c1ccc2c(c1)CC(N)C2 (stereo not shown) [CMP-405, 2-aminoindane-5-methylcarboxylate] | highly permeable | 16.2 | No |  |  |
| CNC(C)Cc1ccc2c(c1)OCO2 (stereo not shown) [MDMA] | less permeable |  | No | 14 | 1.5 |
| COc1ccc2c(c1)CC(N)C2 (stereo not shown) [MEAI, 5-methoxy-2-aminoindane] | highly permeable | 17.4 | No |  |  |
